Measurements taken from patent US9000175B2, “Bicyclic GPR119 modulators” (Lupin Limited, priority 2010, dated 2015).
pEC50: −log10 of the molar value. Several values for one entry are separate records, joined by “and”; a condition that tells them apart may be missing. Equal entries are not always repeated.

Target: T1, human GPR119 (Homo sapiens, UniProt Q8TDV5)
T1 construct: expressed in transfected cells
T1 sequence (Q8TDV5 1-335): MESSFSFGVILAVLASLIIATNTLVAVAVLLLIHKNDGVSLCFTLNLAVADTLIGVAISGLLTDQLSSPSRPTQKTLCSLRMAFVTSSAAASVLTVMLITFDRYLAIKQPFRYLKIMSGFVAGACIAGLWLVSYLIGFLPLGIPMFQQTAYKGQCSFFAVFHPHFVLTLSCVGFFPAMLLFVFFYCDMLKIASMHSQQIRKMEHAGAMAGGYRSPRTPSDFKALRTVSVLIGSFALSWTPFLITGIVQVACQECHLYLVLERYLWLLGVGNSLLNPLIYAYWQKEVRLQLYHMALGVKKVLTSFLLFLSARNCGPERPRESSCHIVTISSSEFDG
Assay: Cyclic AMP assay in stable cell line
Format: cell-based
Conditions: CHO-K1 cells stably transfected with human GPR119; cAMP levels (FRET, cAMP femto kit); 1 h at 37° C; read-out: EC50 Range
Procedure: Cyclic AMP Assay in Stable Cell Line:
Chinese Hamster Ovary (CHO-K1) cells were stably transfected with human GPR119 and were maintained in Ham's F-12 complete medium containing 10% heat inactivated FBS (Sigma, UK). The cells were maintained under a selection pressure with 500 μg/ml G418 (GENETICIN). Stable clones were analyzed for functional cAMP response to OEA (oleoylethanolamide).
To estimate activation of GPR119 and induction of cAMP levels by GPR119 agonists, cells were serum starvation for 18-24 h, trypsinized and seeded in 96 well plates at a, density of 7500 cells/well. The cells were then treated with test compounds diluted in serum free Ham's F12 for 1 h at 37° C. The cAMP levels were measured by using the cAMP femto kit (CisBio) by following the manufacturer's instructions. Following treatment with a test compound, the cells were lysed and cAMP levels were estimated by adding D2-labelled cAMP and europium-cryptate conjugated anti-cAMP antibody. Close proximity of D2 and cryptate results in FRET and the subsequent fluorescence that is measured at 665 and 620 nm. The FRET response is calculated as the ratio of fluorescence at 665 to fluorescence at 620 nm. The unlabelled cAMP produced as a result of GPR119 activation/agonism competes with the D2-cAMP leading to a decrease in the FRET signal. Thus the FRET signal is inversely proportional to the amount of cAMP produced by the treated cells. In a separate set of wells, known concentrations of cAMP were added in order to get a standard linear curve for extrapolation of the cAMP values in the unknown/test samples. Fluorescence was measured on BMG Labtech PHERAstar machine.
The concentration of compound required to stimulate a half-maximal response (EC50) was determined using the GraphPad Prism software.
The compounds prepared were tested using the above assay procedure and the results obtained are given below.

pEC50	SMILES
6.60 to 7.30	CC(C)OC(=O)N1CCC(Oc2ccc(-n3ccc4cc(C(=O)N5CCCC5)ccc43)nc2)CC1 [Example-70, Isopropyl 4-((6-(5-(pyrrolidine-1-carbonyl)-1H-indol-1-yl)pyridin-3-yl)oxy)piperidine-1-carboxylate]
> 7.30	CCc1cnc(N2CCC(Oc3ccc(-n4ccc5cc(C(=O)N6CCCC6)ccc54)nc3)CC2)nc1 [Example-71, (1-(5-((1-(5-Ethylpyrimidin-2-yl)piperidin-4-yl)oxy)pyridin-2-yl)-1H-indol-5-yl)(pyrrolidin-1-yl)methanone]
6.00 to 6.60 and 6.60 to 7.30	CC(C)NC(=O)c1ccc2c(ccn2-c2ccc(OC3CCN(C(=O)OC(C)C)CC3)cn2)c1 [Example-72, Isopropyl 4-((6-(5-(isopropylcarbamoyl)-1H-indol-1-yl)pyridin-3-yl)oxy) piperidine-1-carboxylate]
> 7.30	CC(C)OC(=O)N1CCC(Oc2ccc(-n3ccc4cc(C(=O)N(C)C)ccc43)nc2)CC1 [Example-74, Isopropyl 4-((6-(5-(dimethylcarbamoyl)-1H-indol-1-yl)pyridin-3-yl)oxy) piperidine-1-carboxylate]
6.60 to 7.30	CC(C)(C)OC(=O)N1CCC(Oc2ccc(-n3ccc4cc(C(=O)NCCO)ccc43)nc2)CC1 [Example-76, tert-Butyl-4-((6-(5-((2-hydroxyethyl)carbamoyl)-1H-indol-1-yl)-pyridin-3-yl)oxy)piperidine-1-carboxylate]
> 7.30	CCc1cnc(N2CCC(Oc3ccc(-n4ccc5cc(C(=O)NCCO)ccc54)nc3)CC2)nc1 [Example-77, 1-(5-((1-(5-Ethylpyrimidin-2-yl)piperidin-4-yl)oxy)pyridin-2-yl)-N-(2-hydroxyethyl)-1H-indole-5-carboxamide]
> 7.30	CC(C)c1noc(CN2CCC(Oc3ccc(-n4ccc5cc(S(C)(=O)=O)ccc54)nc3)CC2)n1 [Example-80, 3-Isopropyl-5-((4-((6-(5-(methylsulfonyl)-1H-indol-1-yl)pyridin-3-yl)oxy)piperidin-1-yl)methyl)-1,2,4-oxadiazole]
6.60 to 7.30	CS(=O)(=O)c1ccc2c(ccn2-c2ccc(OC3CCN(Cc4ccc(F)cc4)CC3)cn2)c1 [Example-82, 1-(5-((1-(4-Fluorobenzyl)piperidin-4-yl)oxy)pyridin-2-yl)-5-(methylsulfonyl)-1H-indole]
6.00 to 6.60	CC(C)c1noc(CN2CCC(Oc3ccc(-n4ccc5cc(C(=O)N(C)C)ccc54)nc3)CC2)n1 [Example-84]
6.00 to 6.60	CCc1cnc(N2CCC(Oc3ccc(-n4ccc5cc(C(=O)NCC(F)(F)F)ccc54)nc3)CC2)nc1 [Example-88, 1-(5-((1-(5-Ethylpyrimidin-2-yl)piperidin-4-yl)oxy)pyridin-2-yl)-N-(2,2,2-trifluoroethyl)-1H-indole-5-carboxamide]
> 7.30	CC(C)(C)OC(=O)N1CCC(Oc2ccc(-n3ccc4cc(S(C)(=O)=O)cc(F)c43)nc2)CC1 [Example-91, tert-Butyl-4-((6-(7-fluoro-5-(methylsulfonyl)-1H-indol-1-yl)pyridin-3-yl)oxy)piperidine-1-carboxylate]
6.60 to 7.30	Cc1noc(N2CCC(Oc3ccc(-n4ccc5cc(S(C)(=O)=O)ccc54)nc3)CC2)n1 [Example-92, 3-Methyl-5-(4-((6-(5-(methylsulfonyl)-1H-indol-1-yl)pyridin-3-yl)oxy)piperidin-1-yl)-1,2,4-oxadiazole]
6.00 to 6.60	CC(C)(C)OC(=O)N1CCC(Oc2ccc(-n3ccc4cc(CO)ccc43)nc2)CC1 [Example-94, tert-Butyl-4-((6-(5-(hydroxymethyl)-1H-indol-1-yl)pyridin-3-yl)oxy)piperidine-1-carboxylate]
> 7.30	CCc1cnc(N2CCC(Oc3ccc(-n4ccc5cc(CNC(=O)C(C)C)ccc54)nc3)CC2)nc1 [Example-98, N-((1-(5-((1-(5-Ethylpyrimidin-2-yl)piperidin-4-yl)oxy)pyridin-2-yl)-1H-indol-5-yl)methyl)isobutyramide]
